In assay [1] the test system is bovine s.c. adipose tissue. The experiment in a line: Lipolysis: NEFA release, s.c. adipose tissue explants. It counts as cell-based, bovine (Angus cross steers). To be noted: 30 min; for Effect on NEFA release (in words): s.c. adipose tissue; for NEFA: s.c., mean ± SEM, baseline 0.99 ± 0.40.
Assay [2] has as its system bovine i.m. adipose tissue. The experiment in a line: Lipolysis: glycerol release, i.m. adipose tissue explants. It counts as cell-based, bovine (Angus cross steers). To be noted: 30 min; for Effect on glycerol release (in words): i.m. adipose tissue; for Glycerol: i.m., mean ± SEM, baseline 48.6 ± 10.3.
The test system of assay [3] is bovine s.c. adipose tissue. Description: cAMP in s.c. adipose tissue explants (Cyclic AMP XP Assay Kit). In kind it is cell-based, bovine (Angus cross steers). To be noted: for Effect on cAMP (in words): s.c. adipose tissue, ligand alone; for Effect on cAMP (in words) / cAMP: 30 min; for cAMP: n = 6 steers, baseline 0.42 ± 0.06. The protocol:
(§1) Fresh s.c. adipose tissue was cut into small pieces (50 to 100 mg, actual weight recorded) and i.m. adipose tissue was dissected from the LM as described previously ([Smith and Crouse, 1984]; [Miller et al., 1988]) and weighed. The s.c. and i.m. adipose samples were incubated according to 3 different sets of experimental conditions. Experiment 1: Small pieces of s.c. and i.m. adipose tissues (50 to 100 mg; 1 to 2 mm thick; [Smith and Prior, 1981]) were preincubated in 6-well tissue culture plates in a CO2/O2 incubator (NuAire model 4750 CO2 incubator, Plymouth, MN) for 30 min at 37 °C, 5% CO2 in KHB plus 5 mM glucose, 10 mM HEPES, and 0.5 mM theophylline. […] Experiment 2: The s.c. and i.m. adipose samples were preincubated in KHB plus 5 mM glucose, 10 mM HEPES, and 0.5 mM theophylline in the presence or absence of either 10 µM L-748,337 (β 3-AR antagonist) or 50 µM PRO (β-AR pan-antagonist). […] After the 30 min preincubation, either DOB (β 1-AA) or SAL (β 2-AA) was added to the culture plate wells in a concentration-dependent manner (10^–9 to 10^–4 M) for an additional 30 min. For all experiments, there were at least 3 replicate wells per treatment condition. After a total of 1-hr incubation, the adipose samples were homogenized in 1 mL cell lysis buffer (Cell Signaling Technology, Danvers, MA) with 1 mM phenymethylsulfony fluoride, and centrifuged at 14,000 × g for 30 min to remove tissue debris. The supernatant fractions were stored at −80 °C until subsequent analyses were performed.
(§2) The concentration of cAMP was determined based on the principle of competitive binding using the Cyclic AMP XP Assay Kit according to the manufacturer’s instructions. Cytosolic extracts from the adipose explants were co-incubated at room temperature for 3 hr in 96-well plates with the HRP-linked cAMP substrate coated onto an immobilized rabbit monoclonal cAMP antibody using a horizontal orbital plate shaker. After the reaction, color development was measured at 450 nm using an Epoch microplate reader (Biotek Instruments, Winooski, VT). All samples were analyzed in duplicate. A standard curve and cAMP concentrations were calculated using GrapPad Prism 6.04 software (GraphPad Software Inc., San Diego, CA).

In assay [4] the test system is bovine i.m. adipose tissue. Description: cAMP in i.m. adipose tissue explants (Cyclic AMP XP Assay Kit). In kind it is cell-based, bovine (Angus cross steers). To be noted: for cAMP: n = 6 steers, baseline 0.64 ± 0.19. The protocol:
as §1, §2

The target of a further assay is T1, bovine β 1-AR (Bos taurus, UniProt Q9TT96).
T1 construct: expressed in transfected cells; host or cells: Chinese hamster ovary (CHO) cells, pcDNA3.1+ vector
The experiment in a line: cAMP induction in CHO cells transfected with bovine β 1-AR construct (LANCE cAMP kit). It counts as cell-based. To be noted: 45 min, 5 mM theophylline, ND = cAMP not detected or insufficient for EC50. The protocol: (§3) Chinese Hamster Overy cells were transfected with either the bovine β 1-, β 2-, or β 3-AR constructs in pcDNA3.1+. Expression of the β-AR was confirmed by polymerase chain reaction (PCR). Thereafter, cells were grown in DMEM/Ham’s F12 media with 10% FBS and 1% penicillin/streptomycin at 37 °C under 5% CO2. Opti-plates (Perkin Elmer, Waltham, MA) were used for all experiments. For each experiment, cells were plated into 96-well tissue culture plates at 60,000 cells per well in a volume of 100 µL media. Cells were grown for 48 hr after plating prior to ligand addition and determination of cAMP.
(§4) All samples and standards were tested in duplicate for each repetition, and 4 repetitions per cell line were performed for each potential ligand tested. Controls included no treatment (media alone), 5 mM theophylline alone (an inhibitor of phosphodiesterase), 0.1 % DMSO alone, and water alone. None of the controls differed from media alone and are thus not reported. A volume of media equal to the volume of test material to be added was removed from the well just prior to stimulation. Theophylline was added in a volume of 25 µL to obtain a final concentration of 5 mM and each test molecule was delivered in 10 µL. Cells were returned to 37 °C and allowed to incubate for 45 min before media was removed and the cells lysed in 38 µL lysis buffer A. The LANCE cAMP detection kit (AD0262E) was purchased from Perkin Elmer. The LANCE assay instructions were followed for a 40 µL reaction volume with 15 µL of cell lysate. The reaction was incubated for 20 hr prior to measuring fluorescence. A standard curve was generated with increasing concentrations of cAMP, and the linear portion of the curve was used to calculate sample cAMP concentrations.

In the next assay the target is T2, bovine β 2-AR (Bos taurus, UniProt Q28044).
T2 construct: expressed in transfected cells; host or cells: Chinese hamster ovary (CHO) cells, pcDNA3.1+ vector
Description: cAMP induction in CHO cells transfected with bovine β 2-AR construct (LANCE cAMP kit). In kind it is cell-based. To be noted: 45 min, 5 mM theophylline, ND = cAMP not detected or insufficient for EC50. In general terms: Time-resolved FRET reads energy transfer from a long-lived donor to a nearby acceptor.

For assay [5], the system named is bovine i.m. adipose tissue. Description: Lipolysis: NEFA release, i.m. adipose tissue explants. To be noted: 30 min; for Effect on NEFA release (in words): i.m. adipose tissue; for NEFA: i.m., mean ± SEM, baseline 0.65 ± 0.20. It counts as cell-based, bovine (Angus cross steers).
Assay [6] concerns bovine i.m. adipose tissue. The experiment in a line: cAMP in i.m. adipose tissue explants (Cyclic AMP XP Assay Kit). It counts as cell-based, bovine (Angus cross steers).
Assay [7] relates to bovine s.c. adipose tissue. Description: Lipolysis: glycerol release, s.c. adipose tissue explants. To be noted: 30 min; for Glycerol: s.c., mean ± SEM, baseline 50.0 ± 12.8. In kind it is cell-based, bovine (Angus cross steers).
The target of a further assay is T3, bovine β 3-AR (Bos taurus, UniProt P46626).
T3 construct: expressed in transfected cells; host or cells: Chinese hamster ovary (CHO) cells, pcDNA3.1+ vector
The experiment in a line: cAMP induction in CHO cells transfected with bovine β 3-AR construct (LANCE cAMP kit). It counts as cell-based. To be noted: 45 min, 5 mM theophylline. As for the experimental part:
as §3, §4

[8] abbreviates: s.c., pretreatment 1 µM LUB alone or with 10 µM L-748,337, P < 0.05.

Entries after “also recorded” stand apart in the source; their conditions may differ. Counter-ions that a name gives are not always drawn.

T3 sequence (P46626 whole entry): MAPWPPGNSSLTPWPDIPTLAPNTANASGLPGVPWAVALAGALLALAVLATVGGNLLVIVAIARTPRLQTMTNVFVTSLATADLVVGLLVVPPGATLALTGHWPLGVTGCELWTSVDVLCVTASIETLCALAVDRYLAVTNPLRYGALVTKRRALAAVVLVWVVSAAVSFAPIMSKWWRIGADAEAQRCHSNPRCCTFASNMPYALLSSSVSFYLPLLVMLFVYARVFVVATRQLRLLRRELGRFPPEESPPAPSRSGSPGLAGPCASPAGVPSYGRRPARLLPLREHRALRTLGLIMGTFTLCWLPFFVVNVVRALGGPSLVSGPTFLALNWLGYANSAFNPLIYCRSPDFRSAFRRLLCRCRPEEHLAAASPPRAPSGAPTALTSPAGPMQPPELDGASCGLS
T2 sequence (Q28044 whole entry): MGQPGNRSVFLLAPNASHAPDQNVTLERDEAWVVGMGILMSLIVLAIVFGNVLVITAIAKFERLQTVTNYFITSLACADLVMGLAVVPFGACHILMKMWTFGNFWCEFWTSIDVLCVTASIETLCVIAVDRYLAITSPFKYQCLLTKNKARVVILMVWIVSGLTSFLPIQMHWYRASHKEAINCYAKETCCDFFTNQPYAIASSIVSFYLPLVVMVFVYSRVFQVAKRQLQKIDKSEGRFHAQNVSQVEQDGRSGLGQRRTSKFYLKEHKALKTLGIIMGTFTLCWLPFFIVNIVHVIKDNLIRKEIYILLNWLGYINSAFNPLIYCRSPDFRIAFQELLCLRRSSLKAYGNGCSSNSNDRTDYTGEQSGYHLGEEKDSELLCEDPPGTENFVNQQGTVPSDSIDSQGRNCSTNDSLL
T1 sequence (Q9TT96 whole entry): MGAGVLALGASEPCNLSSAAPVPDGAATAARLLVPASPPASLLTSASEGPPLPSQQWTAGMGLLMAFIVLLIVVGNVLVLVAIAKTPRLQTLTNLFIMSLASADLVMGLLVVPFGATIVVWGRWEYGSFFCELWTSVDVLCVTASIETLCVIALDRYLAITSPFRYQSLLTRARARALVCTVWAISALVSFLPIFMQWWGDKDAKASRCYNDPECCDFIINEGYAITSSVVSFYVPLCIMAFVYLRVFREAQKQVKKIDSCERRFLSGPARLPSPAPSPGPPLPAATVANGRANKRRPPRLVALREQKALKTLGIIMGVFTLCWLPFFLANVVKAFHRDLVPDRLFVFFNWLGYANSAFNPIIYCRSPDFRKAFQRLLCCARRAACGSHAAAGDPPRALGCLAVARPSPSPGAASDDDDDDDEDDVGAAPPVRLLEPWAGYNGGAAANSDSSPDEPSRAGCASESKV
Description for bovine β 2-AR: All samples and standards were tested in duplicate for each repetition, and 4 repetitions per cell line were performed for each potential ligand tested. Controls included no treatment (media alone), 5 mM theophylline alone (an inhibitor of phosphodiesterase), 0.1 % DMSO alone, and water alone. […] A volume of media equal to the volume of test material to be added was removed from the well just prior to stimulation. Theophylline was added in a volume of 25 µL to obtain a final concentration of 5 mM and each test molecule was delivered in 10 µL. […] The reaction was incubated for 20 hr prior to measuring fluorescence. […]

For `CC(C)(Cc1ccc(Oc2ncccc2C#N)cc1)NC[C@H](O)COc1ccccc1-c1cccs1.CC(C)(Cc1ccc(Oc2ncccc2C#N)cc1)NC[C@H](O)COc1ccccc1-c1cccs1.O=C(O)/C=C/C(=O)O` [LUB, lubabegron fumarate], the “Effect on NEFA release (in words)” value was “did not affect; also recorded: Neither BRL-37344 nor LUB influenced cAMP or NEFA concentrations” in assay [1] and “did not affect; also recorded: not influenced” in assay [5]. For the same compound, the “Effect on glycerol release (in words)” value in assay [2] and in [7] (s.c. adipose tissue) was “did not affect” each time. Further, in assay [3], the “Effect on cAMP (in words)” value is on record as “Neither BRL-37344 nor LUB influenced cAMP or NEFA concentrations”. The “Effect of LUB on cAMP production in tissue pretreated with antagonist” value is “reduced by LUB in a dose–response manner” in assay [3] (s.c., 30 min preincubation with 10 µM L-748,337, then LUB 10^–9 to 10^–4 M); “reduced by LUB in a dose–response manner” in assay [3] (s.c., 30 min preincubation with 50 µM PRO, then LUB 10^–9 to 10^–4 M); “depressed cAMP production” in assay [6] (30 min preincubation with 10 µM L-748,337, then LUB); “no effect” in [6] (30 min preincubation with 50 µM PRO, then LUB). For the same compound, the “Adipose tissue lipolytic sensitivity (−logEC50) to β-AR ligands, s.c.” value in [3] (s.c., cAMP readout, mean ± SEM, n = 12 cattle, combinations: preincubation with 1 µM LUB ± 10 µM L-748,337) was 7.40 ± 1.78^2. The “Effect on the EC50 of the SAL cAMP response” value in [3] (s.c., pretreatment 1 µM LUB alone or with 10 µM L-748,337, P < 0.0001) is given as “significantly increased”. Also, in [3] (setting [8]), the “Effect on the maximal cAMP response to DOB” value is given as “significantly diminished the maximal cAMP response”. In addition, in assay [3] (setting [8]), the “Effect on the maximal cAMP response to SAL” value was “attenuated the maximal cAMP response”. In assay [3] (s.c., pretreatment 1 µM LUB alone or with 10 µM L-748,337, P > 0.05), the “Effect on the EC50 of the cAMP response to DOB” value is reported as “not a significant change”. Besides, in assay [4] (i.m. adipose explants, 1 µM LUB), the “Effect of LUB pretreatment on cAMP with DOB or SAL” value is on record as “without effect”. For the same compound, in assay [4] (i.m., cAMP readout, mean ± SEM, n = 12 cattle, combinations: preincubation with 1 µM LUB ± 10 µM L-748,337, N.A. = not possible to calculate EC50), the “Adipose tissue lipolytic sensitivity (−logEC50) to β-AR ligands, i.m.” value is “not demonstrable”. Besides, the values for the EC50 at bovine β 1-AR and on bovine β 3-AR were 0.19 µM and 0.006 µM, respectively. In addition, at bovine β 2-AR, the “Induction of cAMP (EC50), β 2-Construct” value was “no detectible agonistic activity”.
In the case of `CC(C)N[C@@H]1CCn2c(=O)[nH]c3cccc(c32)[C@H]1O` (racemic) [ZIL, zilpaterol hydrochloride], the “Effect on NEFA release (in words)” value in assay [1] and in assay [5] was “Neither RAC nor ZIL affected cAMP production or glycerol or NEFA release” throughout. For the same compound, the NEFA in assay [1] (10^–6 M ligand) was found to be 1.17 ± 0.35 µmol/100 mg tissue; in [1] (10^–7 M ligand), 1.25 ± 0.31 µmol/100 mg tissue; in [1] (10^–8 M ligand) it was 1.06 ± 0.30 µmol/100 mg tissue; in assay [5] (10^–6 M ligand), 0.50 ± 0.16 µmol/100 mg tissue; in assay [5] (10^–7 M ligand), 0.91 ± 0.30 µmol/100 mg tissue; in assay [5] (10^–8 M ligand), 0.78 ± 0.28 µmol/100 mg tissue. Moreover, in assay [2], the “Effect on glycerol release (in words)” value is “Neither RAC nor ZIL affected cAMP production or glycerol or NEFA release”. Moreover, the Glycerol in assay [2] (10^–6 M ligand) amounted to 46.0 ± 14.5 nmol/100 mg tissue; in [2] (10^–7 M ligand), 48.6 ± 13.7 nmol/100 mg tissue; in assay [2] (10^–8 M ligand), 67.4 ± 21.6 nmol/100 mg tissue; in assay [7] (10^–6 M ligand), 65.9 ± 12.6 nmol/100 mg tissue; in assay [7] (10^–7 M ligand), 59.3 ± 15.4 nmol/100 mg tissue; in [7] (10^–8 M ligand) it was 54.8 ± 8.0 nmol/100 mg tissue. The “Effect on cAMP (in words)” value was “Neither RAC nor ZIL (10^–8 to 10^–6 M) affected cAMP concentrations” in assay [3] and “Neither RAC nor ZIL (10^–8 to 10^–6 M) affected cAMP concentrations” in [4] (i.m. adipose tissue, ligand alone, 30 min). For the same compound, the cAMP amounted to 0.62 ± 0.27 pmol/100 mg tissue in assay [3] (s.c., 10^–6 M ligand, mean ± SEM); 0.61 ± 0.27 pmol/100 mg tissue in assay [3] (s.c., 10^–7 M ligand, mean ± SEM); 0.76 ± 0.37 pmol/100 mg tissue in [3] (s.c., 10^–8 M ligand, mean ± SEM); 0.78 ± 0.39 pmol/100 mg tissue in [4] (i.m., 10^–6 M ligand, 30 min, mean ± SEM); 0.51 ± 0.13 pmol/100 mg tissue in [4] (i.m., 10^–7 M ligand, 30 min, mean ± SEM); 0.79 ± 0.30 pmol/100 mg tissue in assay [4] (i.m., 10^–8 M ligand, 30 min, mean ± SEM). The “Induction of cAMP (EC50), β 1-Construct” value at bovine β 1-AR is “no detectible cAMP response”. The EC50 at bovine β 3-AR came out at 9.1 µM.

For orientation: EC50 means the midpoint of the concentration-response curve. Read a high EC50 as weaker potency.
